Test results: PubChem BioAssay (NCI)
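The compound was tested at five concentrations on cells cultured in 96-well plates, with a 48-hour exposure period. GI50 = concentration required for 50% inhibition of growth. TGI is the concentration that stops growth completely.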

Key:
Experiment in all cases: NCI tumour cell line growth inhibition, 48 h
[1] = system: OVCAR-8 ovarian
[2] = system: SW-620 colon
[3] = system: SF-295 CNS
[4] = system: SN12C renal
[5] = system: PC-3 prostate
[6] = system: MDA-MB-435
[7] = system: SK-MEL-28 melanoma
[8] = system: M14 melanoma
[9] = system: OVCAR-4 ovarian
[10] = system: SNB-19 CNS

CC(=O)N=C1N(/C=C2\C(=O)Oc3ccccc3C2=O)C(=O)/C(=C/c2cccc(Cl)c2Cl)N1C
TGI [1]: 44.3 µM
TGI [2]: > 100 µM
TGI [3]: > 100 µM
TGI [4]: > 100 µM
TGI [5]: > 100 µM
TGI [6]: > 100 µM
TGI [7]: > 100 µM
TGI [8]: 34.4 µM

[N-]=[N+]=NC1(Cc2ccccc2)C(=O)c2cccc3c2N(CCC3)C1=O (stereo not drawn)
TGI [1]: > 100 µM
TGI [2]: > 100 µM
TGI [3]: > 100 µM
TGI [4]: > 100 µM
TGI [9]: > 100 µM
TGI [7]: > 100 µM
TGI [8]: > 100 µM

Nc1ccc([N+](=O)[O-])cc1N=C/C=C/c1ccccc1
GI50 [1]: 23.5 µM
TGI [1]: > 100 µM
GI50 [2]: 6.12 µM
TGI [2]: > 100 µM
GI50 [10]: 31.5 µM
TGI [10]: > 100 µM
GI50 [3]: 21.7 µM
TGI [3]: > 100 µM
GI50 [4]: 8.06 µM
TGI [4]: > 100 µM
GI50 [5]: 7.67 µM
TGI [5]: > 100 µM
GI50 [9]: 11.2 µM
TGI [9]: 90.2 µM
GI50 [7]: 29.7 µM
TGI [7]: > 100 µM
GI50 [8]: 8.66 µM
TGI [8]: > 100 µM

O=C1CCC2(c3ccc(Cl)cc3)Nc3ncccc3N12 (stereo not drawn)
TGI [1]: > 100 µM
TGI [2]: > 100 µM
TGI [3]: > 100 µM
TGI [4]: > 100 µM
TGI [9]: > 100 µM
TGI [7]: > 100 µM
TGI [8]: > 100 µM

C#CCOc1cccc(-c2ncc3cc(NC(=O)CCl)ccc3n2)c1
GI50 [2]: 1.56 µM
TGI [2]: 3.25 µM
GI50 [10]: 1.76 µM
TGI [10]: 3.45 µM
GI50 [3]: 3.65 µM
TGI [3]: 17 µM
GI50 [4]: 1.44 µM
TGI [4]: 2.93 µM
GI50 [7]: 1.98 µM
TGI [7]: 3.66 µM
GI50 [8]: 1.81 µM
TGI [8]: 4.54 µM

N#CN/C(N)=N/CO
TGI [1]: > 100 µM
TGI [2]: > 56.3 µM
TGI [10]: > 100 µM
TGI [3]: > 100 µM
TGI [4]: > 100 µM
TGI [9]: > 100 µM
TGI [7]: > 100 µM
TGI [8]: > 100 µM

CC1(C)COC(C2(C)C(=O)C=C(c3ccccc3)c3ccccc32)=N1 (stereo not drawn)
TGI [1]: > 100 µM
TGI [2]: > 100 µM
TGI [10]: > 100 µM
TGI [3]: > 100 µM
TGI [4]: > 100 µM
TGI [9]: > 100 µM
TGI [7]: > 100 µM
TGI [8]: > 100 µM

O=C1CCC(Cl)=CC2CCCN12 (stereo not drawn)
TGI [1]: > 100 µM
TGI [2]: > 100 µM
TGI [10]: > 100 µM
TGI [4]: > 100 µM
TGI [7]: > 100 µM
TGI [8]: > 100 µM

O=C(Nc1ccn(CCO)c(=O)n1)c1ccccc1
TGI [1]: > 100 µM
TGI [2]: > 100 µM
TGI [3]: > 100 µM
TGI [4]: > 100 µM
TGI [9]: > 100 µM
TGI [7]: > 100 µM
TGI [8]: > 100 µM

O=[N+]([O-])c1ccc2[nH]c(=S)[nH]c(=S)c2c1
TGI [1]: > 100 µM
TGI [10]: > 100 µM
TGI [3]: > 100 µM
TGI [4]: > 100 µM
TGI [5]: > 100 µM
TGI [6]: > 100 µM
TGI [9]: > 100 µM
TGI [7]: > 100 µM
TGI [8]: > 100 µM

CSC1=Nc2c(c(C)c(C)n2COC(CO)CO)C2=NC(=O)C(C)N12 (stereo not drawn)
GI50 [1]: > 100 µM
TGI [1]: > 100 µM
GI50 [2]: > 100 µM
TGI [2]: > 100 µM
GI50 [10]: > 100 µM
TGI [10]: > 100 µM
GI50 [3]: > 100 µM
TGI [3]: > 100 µM
GI50 [4]: > 100 µM
TGI [4]: > 100 µM
GI50 [5]: > 100 µM
TGI [5]: > 100 µM
GI50 [6]: > 100 µM
TGI [6]: > 100 µM
GI50 [9]: > 100 µM
TGI [9]: > 100 µM
GI50 [7]: > 100 µM
TGI [7]: > 100 µM
